Data on eleven compounds can be found in PubChem BioAssay (NCI).

Values joined by “and” are separate entries in the source; they are usually repeats but may differ in a detail not shown here. Identical values can stand only once.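 Dose response: 5 concentrations. Exposure: 48 h. Format: 96-well plates. Endpoint: linear interpolation; highest concentration if not reached. Here, GI50 denotes the concentration required for 50% inhibition of growth. TGI: concentration producing complete growth inhibition.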 Bounds are passed on as bounds.

Some test systems named below: SF-295 CNS; SN12C renal; HT29 colon; HOP-62 NSCLC; UACC-257 melanoma; KM12 colon; UACC-62 melanoma; OVCAR-4 ovarian.
Assay in all cases: NCI-60 cell line screen, 48 h

`COCCn1c2c([n+](Cc3cnccn3)c1C)C(=O)c1ccccc1C2=O`: the GI50 in the experiment on SF-295 CNS is 27 nM; in the experiment on SN12C renal, under 10 nM; in the experiment on HT29 colon, 30.9 nM; with HOP-62 NSCLC, 22.1 nM; in the experiment on UACC-257 melanoma, under 10 nM; in the experiment with KM12 colon it was 37.6 nM. In addition, the GI50 in the experiment with UACC-62 melanoma was 18.5 nM; in the experiment on OVCAR-4 ovarian, under 10 nM. For the same compound, the TGI in the experiment with SF-295 CNS is 84.3 nM; in the experiment with SN12C renal it was 31.6 nM; in the experiment with HT29 colon it was 111 nM; with HOP-62 NSCLC, 119 nM; with UACC-257 melanoma, under 10 nM; in the experiment on KM12 colon, 557 nM. In addition, the TGI with UACC-62 melanoma came out at 45.4 nM; in the experiment with OVCAR-4 ovarian it was 12 nM.

On to `Nc1nc(N)c2c(n1)CCC(S(=O)(=O)c1ccc3ccccc3c1)C2` (configuration not stated), for which the TGI in the experiment with SF-295 CNS is over 100000 nM; in the experiment on SN12C renal it was over 100000 nM; with HT29 colon, over 51200 nM; in the experiment on HOP-62 NSCLC, over 100000 nM; with UACC-257 melanoma it was over 100000 nM; in the experiment with KM12 colon it was over 100000 nM. Moreover, the TGI with UACC-62 melanoma and with OVCAR-4 ovarian was over 100000 nM in each case. In addition, the GI50 in the experiment with UACC-62 melanoma is 678 nM; in the experiment with OVCAR-4 ovarian, 4310 nM.

As to `CC[C@@]1(O)C(=O)OCc2c1cc1n(c2=O)Cc2c-1nc1cc(F)c(C)c3c1c2[C@@H](NC(=O)CO)CC3`, the GI50 in the experiment on SF-295 CNS is under 10 nM; with SN12C renal, under 10 nM; in the experiment with HT29 colon, 51.2 nM; with HOP-62 NSCLC, under 10 nM; in the experiment with UACC-257 melanoma, 47 nM; in the experiment with KM12 colon, 149 nM. The GI50 in the experiment on UACC-62 melanoma is under 10 nM; in the experiment on OVCAR-4 ovarian, 206 nM. Moreover, the TGI in the experiment on SF-295 CNS was 338 nM; with HOP-62 NSCLC, 2140 nM; with UACC-257 melanoma, 1020 nM; in the experiment on KM12 colon, over 100000 nM; in the experiment with UACC-62 melanoma, 117 nM; in the experiment with OVCAR-4 ovarian, over 100000 nM.

As to `c1ccc(CC(Nc2cccnc2)c2ccccc2)cc1` (configuration not stated), the TGI in the experiment with SF-295 CNS turned out to be 43300 nM; with SN12C renal, 50800 nM; in the experiment with HT29 colon, 32600 nM; in the experiment on HOP-62 NSCLC it was 60100 nM; in the experiment on UACC-257 melanoma, 49800 nM; with KM12 colon it was 70200 nM. Further, the values for the TGI in the experiment with UACC-62 melanoma and with OVCAR-4 ovarian were 36900 nM and over 100000 nM, respectively.

For `COc1c(B(O)O)cccc1-c1nc2c(F)cc3n[nH]c(C)c3c2c2c1CCCC2`, the GI50 in the experiment on SF-295 CNS was 1280 nM; with SN12C renal, 854 nM; in the experiment with HT29 colon it was 1950 nM; with HOP-62 NSCLC it was 303 nM; in the experiment on UACC-257 melanoma, 2080 nM; in the experiment with KM12 colon, 1310 nM. In addition, the figures for the GI50 with UACC-62 melanoma and with OVCAR-4 ovarian were 1550 nM and 2710 nM, respectively. Besides, the TGI in the experiment on SF-295 CNS was over 40600 nM; with SN12C renal, over 50000 nM; with HT29 colon it was over 50000 nM; with HOP-62 NSCLC it was over 50000 nM; in the experiment on UACC-257 melanoma, over 40800 nM; in the experiment on KM12 colon, over 50000 nM. Further, the TGI in the experiment with UACC-62 melanoma is 8390 nM; with OVCAR-4 ovarian it was over 42100 nM.

Regarding `NC1(C(=O)N[C@@H](CCO)c2ccc(Cl)cc2)CCN(c2ncnc3[nH]ccc23)CC1`, the GI50 was 455 nM and 482 nM in the experiment on SF-295 CNS; 13900 nM in the experiment with SN12C renal; 2500 nM and 5260 nM in the experiment with HT29 colon; 3690 nM and 4890 nM in the experiment with HOP-62 NSCLC; 3800 nM and 7390 nM in the experiment with UACC-257 melanoma; 927 nM and 2780 nM in the experiment with KM12 colon. In addition, the GI50 in the experiment on UACC-62 melanoma is 608 nM and 1850 nM; in the experiment with OVCAR-4 ovarian, > 3080 nM and 33700 nM. Besides, the TGI in the experiment with SF-295 CNS was > 5030 nM and 12900 nM; with SN12C renal, over 100000 nM; in the experiment on HT29 colon, over 100000 nM; in the experiment on HOP-62 NSCLC it was over 100000 nM; in the experiment on UACC-257 melanoma, over 100000 nM; in the experiment on KM12 colon, over 77200 nM. The TGI in the experiment on UACC-62 melanoma was 4000 nM and 23700 nM; with OVCAR-4 ovarian, over 100000 nM.

For the compound `O=C(O)c1ccc(/C=N/N=C2c3ccccc3-c3ccccc32)cc1`, the TGI is 32600 nM in the experiment on SF-295 CNS; over 100000 nM in the experiment on SN12C renal; over 100000 nM in the experiment with HT29 colon; over 100000 nM with HOP-62 NSCLC; over 100000 nM with UACC-257 melanoma; over 100000 nM in the experiment with KM12 colon. Besides, the TGI with UACC-62 melanoma and in the experiment on OVCAR-4 ovarian was over 100000 nM in each case.

As to `O=c1/c(=C\c2ccc(Br)cc2)sc2n1C(c1ccc(Br)cc1)C1=C(N=2)c2ccc3ccccc3c2OCC1` (configuration not stated), the GI50 with SF-295 CNS, with HT29 colon, with HOP-62 NSCLC, in the experiment with UACC-257 melanoma, in the experiment with KM12 colon and in the experiment with UACC-62 melanoma was over 100000 nM each time. In addition, the GI50 with OVCAR-4 ovarian was over 100000 nM. In addition, the TGI in the experiment with SF-295 CNS, in the experiment with HT29 colon, in the experiment with HOP-62 NSCLC, in the experiment with UACC-257 melanoma, in the experiment with KM12 colon and in the experiment with UACC-62 melanoma was over 100000 nM throughout. The same compound showed a TGI in the experiment with OVCAR-4 ovarian of over 100000 nM.

In the case of `CC#CC#C/C(=C/C=CC(=O)OC)SC`, the TGI with SF-295 CNS, in the experiment on SN12C renal, in the experiment on HT29 colon, with UACC-257 melanoma, in the experiment with KM12 colon and in the experiment on UACC-62 melanoma was over 100000 nM each time. In the experiment on OVCAR-4 ovarian, this compound had a TGI of over 100000 nM.

As to `Cc1c(C(=O)c2ccccc2)[n+](=O)c2cc(F)c(F)cc2n1[O-]`, the GI50 in the experiment with SF-295 CNS is 1950 nM; with HT29 colon it was 2520 nM; with HOP-62 NSCLC, 1840 nM; with UACC-257 melanoma it was 2490 nM; in the experiment with KM12 colon it was 11400 nM; in the experiment on UACC-62 melanoma it was 1510 nM. The GI50 in the experiment on OVCAR-4 ovarian was 3110 nM. Moreover, the TGI in the experiment with SF-295 CNS is 3460 nM; with HT29 colon it was over 100000 nM; in the experiment with HOP-62 NSCLC, 3400 nM; in the experiment on UACC-257 melanoma, 6100 nM; in the experiment with KM12 colon, 25000 nM; in the experiment with UACC-62 melanoma, 2830 nM. Moreover, the TGI in the experiment on OVCAR-4 ovarian is over 100000 nM.

For `COc1cc(N2CCC(N)CC2)ccc1Nc1ncc(Cl)c(-c2c[nH]c3ccccc23)n1`, the GI50 with SF-295 CNS was 1540 nM; with SN12C renal, 869 nM; with HT29 colon, 34.3 nM; in the experiment on HOP-62 NSCLC it was 389 nM; in the experiment on UACC-257 melanoma it was 1020 nM; in the experiment with KM12 colon it was 302 nM. Also, in the experiment on OVCAR-4 ovarian, the GI50 is 235 nM. Moreover, the TGI with SF-295 CNS is 3310 nM; with SN12C renal, 3760 nM; with HT29 colon, 1430 nM; in the experiment with HOP-62 NSCLC it was 1990 nM; in the experiment on UACC-257 melanoma, 2340 nM; in the experiment with KM12 colon, 1140 nM. This compound gave a TGI in the experiment with OVCAR-4 ovarian of 3660 nM.
